Measurements: the NIST ThermoML archive (doi:10.1016/j.fluid.2015.07.036)
± gives the expanded uncertainty stated by the source.

Details: for mass density: 100 kPa, Liquid, single sinker densimeter

CCCC[N+]1(C)CCCC1.N#CC(=C=[N-])C#N [1-butyl-1-methylpyrrolidinium tricyanomethanide]
Details	mass density [kg/m3]
263.25 K	1028.92 ± 0.88
268.05 K	1026.15 ± 0.88
274.1 K	1022.18 ± 0.88
278.48 K	1019.29 ± 0.88
283.44 K	1015.85 ± 0.88
288.48 K	1012.68 ± 0.88
292.96 K	1010.28 ± 0.88
298.28 K	1006.87 ± 0.88
303.21 K	1003.94 ± 0.88
308.06 K	1000.78 ± 0.88
313.19 K	997.8 ± 0.88
317.91 K	995.05 ± 0.88
323.17 K	991.69 ± 0.88
328.28 K	988.81 ± 0.88
333.1 K	985.27 ± 0.88
337.77 K	982.59 ± 0.88
343.16 K	979.77 ± 0.88
347.27 K	977.15 ± 0.88
353.46 K	973.98 ± 0.88
358.07 K	970.73 ± 0.88
364.38 K	967.59 ± 0.88

surface tension liquid-gas [mN/m]
Details	Ring tensiometer	wilhelmy plate method
263.32 K	52.96 ± 0.88	–
267.79 K	52.64 ± 0.88	–
273.16 K	52.22 ± 0.87	–
278.42 K	52.03 ± 0.87	–
283.38 K	51.73 ± 0.87	51.36 ± 0.43
288.45 K	–	50.96 ± 0.43
288.46 K	51.49 ± 0.86	–
292.95 K	51.08 ± 0.86	–
292.96 K	–	50.68 ± 0.43
298.26 K	50.33 ± 0.85	–
298.36 K	–	50.23 ± 0.43
303.17 K	49.82 ± 0.85	–
303.2 K	–	50.1 ± 0.42
308.03 K	–	49.59 ± 0.42
308.05 K	49.88 ± 0.85	–
313.16 K	49.27 ± 0.84	–
313.2 K	–	48.94 ± 0.42
317.89 K	48.85 ± 0.84	–
317.94 K	–	48.74 ± 0.42
323.16 K	48.36 ± 0.83	48.3 ± 0.42
328.06 K	–	47.88 ± 0.42
328.22 K	48.2 ± 0.83	–
333.03 K	–	47.55 ± 0.41
333.06 K	47.81 ± 0.83	–
337.77 K	–	47.21 ± 0.41
337.78 K	47.44 ± 0.83	–
343.45 K	–	46.74 ± 0.41
343.47 K	47.14 ± 0.82	–
347.24 K	46.8 ± 0.82	–
347.78 K	–	46.41 ± 0.41
353.48 K	46.51 ± 0.82	–
353.56 K	–	46.01 ± 0.41
358.13 K	46.25 ± 0.81	–
358.24 K	–	45.64 ± 0.41
364.65 K	45.8 ± 0.81	–
364.77 K	–	45.17 ± 0.4

CCn1cc[n+](C)c1.N#C[C-](C#N)C#N [1-ethyl-3-methyl-1H-imidazolium tricyanomethanide]
Details	mass density [kg/m3]
262.68 K	1106.12 ± 0.68
268.65 K	1101.93 ± 0.68
273.46 K	1098.21 ± 0.68
278.14 K	1095.15 ± 0.68
283.27 K	1091.23 ± 0.68
288.08 K	1088.11 ± 0.68
293.16 K	1084.64 ± 0.68
298.19 K	1081 ± 0.68
303.27 K	1077.46 ± 0.68
308.21 K	1073.93 ± 0.68
313.21 K	1070.64 ± 0.68
318.2 K	1067.14 ± 0.68
323.32 K	1063.82 ± 0.68
327.9 K	1060.39 ± 0.68
333.05 K	1057.29 ± 0.68
338.17 K	1053.46 ± 0.68
342.95 K	1050.5 ± 0.68
348.05 K	1047.15 ± 0.68
352.71 K	1043.86 ± 0.68
358.12 K	1040.23 ± 0.68
364.84 K	1035.96 ± 0.68

Details	surface tension liquid-gas [mN/m]
283.22 K, wilhelmy plate method	50.62 ± 0.23
283.25 K, Ring tensiometer	50.71 ± 0.74
288.01 K, wilhelmy plate method	50.33 ± 0.23
288.03 K, Ring tensiometer	50.29 ± 0.74
293.17 K, Ring tensiometer	49.61 ± 0.73
293.19 K, wilhelmy plate method	49.74 ± 0.23
298.13 K, Ring tensiometer	49.45 ± 0.73
298.15 K, wilhelmy plate method	49.4 ± 0.23
303.06 K, Ring tensiometer	48.87 ± 0.72
303.07 K, wilhelmy plate method	48.89 ± 0.22
308.18 K, Ring tensiometer	48.37 ± 0.72
308.19 K, wilhelmy plate method	48.42 ± 0.22
313.19 K, wilhelmy plate method	48.06 ± 0.22
313.27 K, Ring tensiometer	47.99 ± 0.71
318.16 K, wilhelmy plate method	47.48 ± 0.22
318.18 K, Ring tensiometer	47.44 ± 0.71
323.26 K, Ring tensiometer	46.86 ± 0.7
323.3 K, wilhelmy plate method	47.14 ± 0.22
327.9 K, wilhelmy plate method	46.7 ± 0.22
328.44 K, Ring tensiometer	46.65 ± 0.7
333.28 K, Ring tensiometer	46.24 ± 0.7
333.4 K, wilhelmy plate method	46.16 ± 0.22
338.24 K, wilhelmy plate method	45.83 ± 0.22
338.25 K, Ring tensiometer	45.72 ± 0.69
343.18 K, Ring tensiometer	45.39 ± 0.69
343.21 K, wilhelmy plate method	45.31 ± 0.22
347.97 K, Ring tensiometer	44.69 ± 0.69
347.98 K, wilhelmy plate method	44.86 ± 0.22
352.81 K, Ring tensiometer	44.55 ± 0.68
352.89 K, wilhelmy plate method	44.44 ± 0.22
358.17 K, Ring tensiometer	44.06 ± 0.68
358.44 K, wilhelmy plate method	43.93 ± 0.22
365.18 K, Ring tensiometer	43.3 ± 0.67
365.23 K, wilhelmy plate method	43.29 ± 0.22

CCCC[n+]1ccc(C)cc1.N#CC(=C=[N-])C#N [1-butyl-4-methylpyridinium tricyanomethanide]
Details	mass density [kg/m3]
263.45 K	1059.1 ± 1.1
267.95 K	1056.28 ± 1.1
273.54 K	1052.57 ± 1.1
278.65 K	1048.92 ± 1.1
283.37 K	1045.67 ± 1.1
288.63 K	1042.4 ± 1.1
293.52 K	1038.75 ± 1.1
298.25 K	1035.8 ± 1.1
303.03 K	1032.82 ± 1.1
308.01 K	1029.21 ± 1.1
313.21 K	1025.76 ± 1.1
318.36 K	1022.75 ± 1.1
323.38 K	1019.48 ± 1.1
327.88 K	1016.44 ± 1.1
332.98 K	1013.51 ± 1.1
337.59 K	1010.37 ± 1.1
342.27 K	1007.38 ± 1.1
348.16 K	1003.72 ± 1.1
353.42 K	1000.42 ± 1.1
358.02 K	997.29 ± 1.1
363.31 K	993.79 ± 1.1

surface tension liquid-gas [mN/m]
Details	Ring tensiometer	wilhelmy plate method
288.6 K	49.8 ± 0.82	–
293.53 K	49.54 ± 0.82	49.49 ± 0.27
298.24 K	–	49.18 ± 0.26
298.25 K	49.45 ± 0.82	–
303.01 K	–	48.76 ± 0.26
303.02 K	48.8 ± 0.82	–
307.98 K	48.37 ± 0.81	–
308.01 K	–	48.35 ± 0.26
313.22 K	48.23 ± 0.81	–
313.27 K	–	47.89 ± 0.26
318.3 K	48.03 ± 0.81	–
318.35 K	–	47.44 ± 0.26
323.38 K	–	47.12 ± 0.26
323.41 K	47.28 ± 0.8	–
327.86 K	47.1 ± 0.8	–
327.98 K	–	46.65 ± 0.25
332.9 K	–	46.21 ± 0.25
332.94 K	46.55 ± 0.8	–
337.57 K	46.06 ± 0.79	–
337.68 K	–	45.88 ± 0.25
344.17 K	–	45.37 ± 0.25
344.19 K	45.74 ± 0.79	–
348.14 K	45.27 ± 0.78	–
348.15 K	–	45.03 ± 0.25
353.35 K	44.97 ± 0.78	–
353.43 K	–	44.52 ± 0.25
358.06 K	44.65 ± 0.78	–
358.09 K	–	44.17 ± 0.25
363.37 K	44.18 ± 0.78	–
363.55 K	–	43.66 ± 0.24
